We go through 18 compounds from patent US20230203005A1, “COMPOUNDS WITH TUBULIN POLYMERISATION INHIBITORY ACTIVITY AND IMMUNOMODULATORY PROPERTIES” (UNIVERSITE PARIS-SACLAY, priority 2018, published 2023).

The conditions of series [1]: prior art WO 2008/122620; cited from earlier work.
Series [2] concerns tubulin. Put plainly: Tubulin polymerisation inhibition (fluorescence assembly assay). Type of series: biochemical, ewe. As to conditions: inhibition of 50% of the maximum assembly rate; tubulin 10 μM. The method, then:
The tubulin is purified from ewe brains according to the Shelanski method by 2 assembly-disassembly cycles. The mother solution (15-20 mg/mL), stored at −196° C., is thawed and diluted in the assembly buffer (0.1 M MES, 0.5 mM MgCl2, 1 mM EGTA, and 1 mM GTP, pH 6.6) to have a final concentration of 10 μM. Tubulin assembly is monitored by fluorescence on 96 well plates according to the method of Barron et al. (Anal. Biochem. 315 (2003) 49-56). To the solution of tubulin (10 μM, 100 μL per well) is added the inhibitor (DMSO, 1 μL) and the solution is incubated for 45 min at room temperature. GTP (1 mM final) is next added, the solution is rapidly mixed and the fluorescence (λex=350 nm, λem=440 nm) is measured on a Wallac Victor fluorimeter (Perkin Elmer). The determination of the inhibition of 50% of the maximum assembly rate (IC50) is carried out in duplicate or triplicate over 10 concentrations surrounding the IC50.

Series [3] deals with HCT116 colorectal carcinoma. As to the kind of experiment: In vitro cytotoxicity (CellTiter-Blue), HCT116. Format: cell-based. Particulars: Homo sapiens, HCT-116; 72 hours of incubation. Here is the method: (§1) The biological activity of the compounds of the invention were studied in vitro on […] human cancer cell lines of different tissular origins: HCT116 colorectal carcinoma; A2780R Cisplatin resistant ovary cancer; MiaPaca2 pancreatic cancer; K562R Doxorubicin resistant chronic myeloid leukaemia; JIM-T1 Trastuzumab-DM1 resistant mammal carcinoma; and HepG2 hepatic carcinoma. The cells selected for this study were incubated at 37° C. in the presence of one of the compounds added to the culture medium at different concentrations. The series of experiments carried out made it possible to determine the degree of toxicity of the compound tested, its effect on cell cycle progression as well as its capacity to induce cell death by apoptosis.
All the cell lines were maintained in culture at 37° C. in a humid atmosphere containing 5% CO2. Cell viability was evaluated using the reagent CellTiter-Blue™ (Promega, Wis., USA) while respecting the manufacturer's instructions. The cells were seeded in 96 well culture plates at a rate of 5000 cells per […] in 50 μl of culture medium. After 24 hours of culture, the compounds of generic formula (I) dissolved in DMSO were added individually to each of the wells at a rate of 50 μl per well. All the compounds were tested in triplicate for each concentration defined and each experiment was repeated 3 times. After 72 hours of incubation, 20 μL of resazurin were added to each well. After 2 hours of incubation, the fluorescence emitted was measured at 590 nm after excitation at 560 nm by means of a Victor type fluorescence reader (Perkin-Elmer, USA).
(In general: The colour change of resazurin is a common sign of viable cells or microbes.)

Series [4] deals with JIM-T1 Trastuzumab-DM1 resistant mammal carcinoma. As to the kind of experiment: In vitro cytotoxicity (CellTiter-Blue), JIM-T1. As to conditions: Homo sapiens, JIMT-1; 72 hours of incubation. Type of series: cell-based. The method, then:
as §1
(§2) All the cell lines were maintained in culture at 37° C. in a humid atmosphere containing 5% CO2. Cell viability was evaluated using the reagent CellTiter-Blue™ (Promega, Wis., USA) while respecting the manufacturer's instructions. The cells were seeded in 96 well culture plates at a rate of 5000 cells per […] in 50 μl of culture medium. […] After 2 hours of incubation, the fluorescence emitted was measured at 590 nm after excitation at 560 nm by means of a Victor type fluorescence reader (Perkin-Elmer, USA).

Series [5] has as its system MiaPaca2 pancreatic cancer. Put plainly: In vitro cytotoxicity (CellTiter-Blue), MiaPaca2. Format: cell-based. As to conditions: Homo sapiens, MIA PaCa-2; 72 hours of incubation. Here is the method:
as §1, §2

Series [6] relates to A2780R Cisplatin resistant ovary cancer. Put plainly: In vitro cytotoxicity (CellTiter-Blue), A2780R. Type of series: cell-based. As to conditions: Homo sapiens; 72 hours of incubation. The method, then:
as §1, §2

Series [7] has as its system K562R Doxorubicin resistant chronic myeloid leukaemia. As to the kind of experiment: In vitro cytotoxicity (CellTiter-Blue), K562R. As to conditions: Homo sapiens, K-562R; 72 hours of incubation. Format: cell-based. Here is the method: as §1, §2

SMILES strings stand for the structures.

`C=C(c1ccc(OC)c(O)c1)c1cc(OC)c(OC)c(OC)c1` [isoCA-4, Isocombretastatin A-4]: the “Metabolism in the presence of hepatocytes” value in series [1] is given as “do not metabolise in the presence of hepatocytes”.
For the compound `Cc1cc(N(C)c2ccc3c(c2)c2ccccc2n3C)c2cc(N)ccc2n1` [Compound 16, N4,2-Dimethyl-N4-(9-methyl-9H-carbazol-3-yl)quinoline-4,6-diamine], the IC50 (commonly the point on the concentration scale where inhibition reaches its midpoint) was found to be 5760 ± 1470 nM in series [2] and 24.5 ± 1.92 nM in series [3].
For `C=C(c1ccc(OC)c(N)c1)c1cc(OC)c(OC)c(OC)c1` [isoNH2CA-4, isoaminocombretastatin A-4], the “Metabolism in the presence of hepatocytes” value in series [1] is reported as “do not metabolise in the presence of hepatocytes”.
As to `CN(c1ccc2c(c1)c1ccccc1n2C)c1nc(Cl)nc2ccccc12` [Compound 10, N-(2-Chloroquinazolin-4-yl)-N,9-dimethyl-9H-carbazol-3-amine], the IC50 in series [2] came to 3140 ± 1040 nM; in series [3] it was 1.06 ± 0.2 nM.
Take `CN(c1ccc2c(ccn2C)c1)c1cc(C#N)nc2ccccc12` [Compound 19, 4-(Methyl(1-methyl-1H-indol-5-yl)amino)quinoline-2-carbonitrile]: the melting point (as a rule, the temperature of the solid-liquid transition) was 173.1 to 174.2 °C. In series [2], this compound had an IC50 of 2780 ± 1140 nM. In addition, the IC50 in series [3] was 0.72 ± 0.03 nM.
For `Cc1cc(N(C)c2ccc3c(c2)c2cc(N)ccc2n3C)c2ccccc2n1` [Compound 14, N3,9-dimethyl-N3-(2-methylquinolin-4-yl)-9H-carbazole-3,6-diamine], the IC50 amounted to 2760 ± 500 nM in series [2] and 2.88 ± 1.54 nM in series [3].
`CN(c1ccc2c(c1)c1ccccc1n2C)c1ccnc2ccccc12` [Compound 4, N,9-Dimethyl-N-(quinolin-4-yl)-9H-carbazol-3-amine] came in with a melting point of 222.2 to 228.4 °C.
On the same count and under the same terms, the value for `CCn1c2ccccc2c2cc(N(C)c3cc(C)nc4ccccc34)ccc21` [Compound 8, 9-Ethyl-N-methyl-N-(2-methylquinolin-4-yl)-9H-carbazol-3-amine] was 87.4 to 89.6 °C.
Take `CN(c1ccc2c(c1)c1ccccc1n2C)c1cc(C#N)nc2ccccc12` [Compound 2, 4-(Methyl(9-methyl-9H-carbazol-3-yl)amino)quinoline-2-carbonitrile]: the IC50 is 1400 ± 510 nM in series [2] and 12 ± 0.8 nM in series [3].
Take `Cc1cc(N(C)c2ccc3c(ccn3C)c2)c2ccccc2n1` [Compound 18, N,2-Dimethyl-N-(1-methyl-1H-indol-5-yl)quinolin-4-amine]: the concentration for half-maximal inhibition (IC50) in series [2] is 1340 ± 450 nM; in series [3], 2 ± 0.04 nM.
In the case of `CN(c1ccc2c(c1)c1ccccc1n2C)c1cc(Cl)nc2ccccc12` [Compound 17, N-(2-Chloroquinolin-4-yl)-N,9-dimethyl-9H-carbazol-3-amine], the IC50 came to 1160 ± 310 nM in series [2] and 16.7 ± 0.38 nM in series [3].
Consider `Cc1cc(N(C)c2ccc3c(c2)c2ccccc2n3C)c2cccc(O)c2n1` [Compound 15, 2-Methyl-4-(methyl(9-methyl-9H-carbazol-3-yl)amino)quinolin-8-ol], for which the IC50 amounted to 1240 ± 400 nM in series [2] and 50.6 ± 0.66 nM in series [3].
Consider `CN(c1ccc2c(ccn2C)c1)c1nc(Cl)nc2ccccc12` [Compound 21, 2-Chloro-N-methyl-N-(1-methyl-1H-indol-5-yl)quinazolin-4-amine], for which the IC50 in series [4] was found to be 0.52 ± 0.016 nM; in series [5], 0.62 ± 0.016 nM; in series [2], 1190 ± 280 nM; in series [6], 2.34 ± 0.18 nM; in series [7] it was 1.77 ± 0.162 nM; in series [3], 0.2 ± 0.01 nM.
Take `Cc1cc(N(C)c2ccc3c(c2)c2ccccc2n3C)c2cc([N+](=O)[O-])ccc2n1` [Compound 7, N,9-Dimethyl-N-(2-methyl-6-nitroquinolin-4-yl)-9H-carbazol-3-amine]: the melting point lay in the range of 207.6 to 212.4 °C.
Take `CN(c1ccc2c(ccn2C)c1)c1cc(C(F)(F)F)nc2ccccc12` [Compound 20, N-Methyl-N-(1-methyl-1H-indol-5-yl)-2-(trifluoromethyl)quinolin-4-amine]: the half-maximal inhibitory concentration (IC50) in series [2] was 2500 ± 540 nM; in series [3] it was 3.28 ± 0.18 nM.
Consider `Cc1cc(N(C)c2ccc3c(c2)c2ccccc2n3Cc2ccccc2)c2ccccc2n1` [Compound 5, 9-Benzyl-N-methyl-N-(2-methylquinolin-4-yl)-9H-carbazol-3-amine], for which the melting point lay in the range of 192.7 to 196.5 °C.
As to `Cc1nc(N(C)c2ccc3c(c2)c2ccccc2n3C)c2ccccc2n1` [Compound 9, N,9-Dimethyl-N-(2-methylquinazolin-4-yl)-9H-carbazol-3-amine], the IC50 is 3800 ± 900 nM in series [2] and 2.4 ± 0.2 nM in series [3].
For `COc1cccc2c(N(C)c3ccc4c(c3)c3ccccc3n4C)cc(C)nc12` [Compound 6, N-(8-Methoxy-2-methylquinolin-4-yl)-N,9-dimethyl-9H-carbazol-3-amine], the IC50 stood at 1480 ± 520 nM in series [2] and 21.6 ± 0.71 nM in series [3].
